The record followed here is the OPERA property sets (Mansouri et al. 2018).

Conditions in one series: not given
Broadly, the boiling point is the temperature of boiling at a given pressure. As a reminder, the melting point is the temperature, or range, at which the solid turns liquid. On to `C=C(CC(=O)OC)C(=O)OC`, for which the boiling point stood at 208 °C and the melting point came out at 38 °C.

`C[C@]12CCC(=O)C=C1CC[C@@H]1[C@@H]2CC[C@@]2(C)[C@H]1CC[C@]2(C)O`: the melting point is 163 °C.

In the case of `CCSc1ccc(C)cc1`, the boiling point stood at 220 °C.

For the molecule `CC(=O)O[C@@H]1C[C@H](C)CC[C@H]1C(C)C` (racemic), the boiling point stood at 228 °C and the log10 vapour pressure (mmHg) is -0.983.

Molecule `F[Si](F)(F)c1ccccc1` gave a boiling point of 102 °C and a melting point of -18 °C.

`Clc1ccc(-c2ccccc2Cl)cc1` displayed a log10 Henry constant (atm·m³/mol) of -3.64, a log10 Koa of 7.4, a log10 Koc (L/kg) of 4.34 and a log10 vapour pressure (mmHg) of -2.68.

`Clc1ccc2cc[nH]c2c1` registered a melting point of 90 °C.

Consider `Cc1ccc(N=c2sccn2C)c(C)c1`, for which the log10 vapour pressure (mmHg) is -4.74 and the melting point amounted to 44 °C.

For the molecule `c1ccc(Nc2ccc(Nc3ccccc3)cc2)cc1`, the log10 vapour pressure (mmHg) was -8.2 and the ready biodegradability entry is on record as “not readily biodegradable”.

Consider `CCCCCCC(C)(C)O`, for which the boiling point is 178 °C.

As for `CC1(C)CCCc2ccccc21`, the boiling point was 221 °C.

As to `CC(C)CCCCCO`, the boiling point came out at 188 °C and the melting point was -106 °C.

`CC1(C)O[C@@H]2C[C@H]3[C@@H]4CCC5=CC(=O)C=C[C@]5(C)[C@@]4(F)[C@@H](O)C[C@]3(C)[C@]2(C(=O)CO)O1`: the melting point was found to be 293 °C.

`Clc1ccc(Cl)c2c(Cl)cccc12` returned a log10 Koa of 7.56.

Consider `O=C(O)C=Cc1cccc([N+](=O)[O-])c1`, for which the melting point turned out to be 179 °C.

For the molecule `CCCC(C)C(CC)CC` (stereo not drawn), the boiling point was 165 °C.

In the case of `COCCc1ccccn1`, the boiling point came to 203 °C.

In turn, `Cn1ccc(=O)[nH]c1=O` came in with a log10 vapour pressure (mmHg) of -3.29 and a melting point of 237 °C.

`ClCC(Cl)C(Cl)Cl` (stereo not drawn) returned a boiling point of 180 °C.

In the case of `CC(=O)c1ccc(C#N)cc1`, the melting point was determined as 57.5 °C.

In turn, `CCCC(C)(C)C(=O)Nc1ccc(Cl)cc1` displayed a melting point of 87.5 °C.

Regarding `CCC(=O)Nc1cc(N(CCOC(C)=O)CCOC(C)=O)ccc1N=Nc1ccc([N+](=O)[O-])cc1Cl`, the ready biodegradability entry is recorded as “not readily biodegradable”.

For `O=C1NC(=O)c2c(Cl)c(Cl)c(Cl)c(Cl)c21`, the ready biodegradability result is “not readily biodegradable”.

In turn, `CC1(C)CCCCC1O` (stereo not drawn) displayed a boiling point of 177 °C and a melting point of 8 °C.

In turn, `CCOC(=O)COc1cccc2ccccc12` showed a melting point of 56.5 °C.

For `CCCCCC(=O)OC(=O)CCCCC`, the melting point is -41 °C.

`CC(C)=CCC1=C(O)C(=O)c2ccccc2C1=O` returned a melting point of 140 °C.

Regarding `C1CCC(CCCC2CCCCC2)CC1`, the boiling point was 292 °C and the melting point is -17 °C.

Turning to `CCCCCCCCCCCCCCCCC(=O)OCC`, the melting point amounted to 28 °C.

`Cc1cc(Br)ccc1Br` registered a boiling point of 236 °C and a melting point of 5.6 °C.

`C=CCF`: the boiling point was -3 °C.

Molecule `Nc1ccc(Cl)c([N+](=O)[O-])c1` displayed a melting point of 103 °C.

Molecule `FC(F)(F)CCBr` showed a boiling point of 63.5 °C.

Take `O=C(NCC1CCCCN1)c1cc(OCC(F)(F)F)ccc1OCC(F)(F)F` (stereo not drawn): the melting point was found to be 146 °C.

Molecule `COC(=O)c1ccc(O)c(OC)c1` returned a boiling point of 286 °C and a melting point of 64 °C.

`O=CCCc1ccccc1`: the boiling point is 224 °C.

`O=C(O)COc1ccc(F)cc1` had a melting point of 104 °C.

In turn, `CCCCNCC(O)c1ccc(O)cc1` (stereo not drawn) had a melting point of 124 °C.

As for `CCC(Br)CC`, the boiling point stood at 119 °C and the melting point is -126 °C.

`CC(C)(C)c1cc(Cc2cc(C(C)(C)C)c(O)c(C(C)(C)C)c2)cc(C(C)(C)C)c1O`: the ready biodegradability entry is “not readily biodegradable”.

Molecule `COC(F)(F)C(F)(F)C(F)(F)F` had a log10 vapour pressure (mmHg) of 2.75.

`CN(C)C(=S)Sc1ccc([N+](=O)[O-])cc1[N+](=O)[O-]` came in with a melting point of 152 °C.

`FC(Cl)=C(Cl)C(F)(F)F` yielded a boiling point of 47.3 °C and a melting point of -137 °C.

Consider `CN1CC[C@]23C(=O)C[C@H]4C(=CCO[C@H]5CC(=O)N(c6c(O)cccc62)[C@H]3[C@H]54)C1`, for which the melting point was determined as 282 °C.

In turn, `NN(c1ccccc1)c1ccccc1` yielded a log10 vapour pressure (mmHg) of -3.31 and a melting point of 50.5 °C.

With `ClCCc1ccccc1`, the ready biodegradability result is recorded as “not readily biodegradable”.

For `C=CCOc1ccc(CC(=O)O)cc1Cl`, the melting point stood at 92.5 °C.

For the molecule `CC(N)Cc1ccccc1` (stereo not drawn), the log10 vapour pressure (mmHg) is -0.62.

In turn, `NC(=O)Nc1ccc2ccccc2c1` returned a melting point of 219 °C.

`CN1CCN(C(=O)OC2C3=C(SCCS3)C(=O)N2c2ccc3ccc(Cl)nc3n2)CC1` (stereo not drawn) yielded a melting point of 280 °C.

Take `COP(=S)(OC)Oc1ccc(C#N)cc1`: the log10 vapour pressure (mmHg) is -3.1, the melting point turned out to be 14.5 °C and the ready biodegradability entry is listed as “not readily biodegradable”.

On to `CCC(CC)c1ccncc1`, for which the boiling point turned out to be 217 °C and the melting point is 126 °C.

`CCCCCCCCCc1ccc(OP(=O)(Oc2ccccc2)Oc2ccccc2)cc1` showed a boiling point of 471 °C, a log10 Henry constant (atm·m³/mol) of -7.85 and a log10 Koc (L/kg) of 4.06.

The series is the same for the next values; noted with them: fish.
Molecule `Cc1ccc(N)c(S(=O)(=O)O)c1` displayed a log10 BCF of 0.6.

As to `COP(=S)(OC)Oc1ccc(S(C)(=O)=O)c(C)c1`, the log10 BCF worked out at 0.51 and the log10 biotransformation half-life (days) is -0.03.

The molecule `c1ccc(Nc2ccc(Nc3ccccc3)cc2)cc1` came in with a log10 BCF of 3.12.

For the molecule `Cc1cc2cc3cc(C)c(C)cc3cc2cc1C`, the log10 biotransformation half-life (days) was 0.59.

In turn, `CC1(C)[C@H](C(=O)O[C@@H](C#N)c2cccc(Oc3ccccc3)c2)[C@@H]1C=C(Cl)Cl` (single isomer, unassigned) displayed a log10 biotransformation half-life (days) of 0.7.

Turning to `COP(=S)(OC)Oc1ccc(C#N)cc1`, the log10 BCF came to 1.56 and the log10 biotransformation half-life (days) came out at 0.23.
